The values below come from the supplement of paper PMC7224384.

The subject of test [1] is MDA-MB-453. As to the kind of experiment: drug sensitivity score (DSS), single agent (DSS (weighted AUC score)); higher = more sensitive (stronger viability decrease); extreme values may be limits of the assay. The following applies: BLU9931 0 nM; 72 h. The procedure, abridged:
(§1)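 Each 384-well plate held compounds from the FIMM Oncology set, predispensed in singlicate at five 10-fold dilutions spanning a 10,000-fold range, and each well then received 2000 MDA-MB-453 cells in medium with or without an FGFR4 inhibitor at 100 nM final. Plates stayed at 37 °C, 5% CO2 for 72 h, after which cellular ATP was measured with CellTiterGlo 2.0. Readings were converted per plate into percent viability against control wells, and the drug sensitivity score was taken as a weighted area under a four-parameter logistic fit.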

The test system of test [2] is MDA-MB-453. As to the kind of experiment: drug sensitivity score (DSS), in combination with BLU9931 (DSS (weighted AUC score)); higher = more sensitive (stronger viability decrease); extreme values may be limits of the assay. The following applies: BLU9931 100 nM; 72 h. The procedure, abridged:
as §1

As to `O=C(CCCCCCNC(=O)c1cnc(N(c2ccccc2)c2ccccc2)nc1)NO` [Rocilinostat], the drug sensitivity score worked out at 9.2 in test [1] and 9.8 in test [2].

With `CC(C)c1cc(C(=O)N2Cc3ccc(CN4CCN(C)CC4)cc3C2)c(O)cc1O` [Onalespib], the results for the drug sensitivity score in test [1] and in test [2] were 17 and 16.4, respectively.

`Cc1c(C(=O)Nc2ccc(N3C[C@@H](C)O[C@@H](C)C3)nc2)cccc1-c1ccc(OC(F)(F)F)cc1` [Sonidegib]: the values for the drug sensitivity score in test [1] and in test [2] were 5.8 and 1.4, respectively.

Regarding `CC[C@H](C)C(=O)O[C@H]1C[C@@H](C)C=C2C=C[C@H](C)[C@H](CC[C@@H]3C[C@@H](O)CC(=O)O3)[C@H]21` [Lovastatin], the drug sensitivity score in test [1] and in test [2] was 0 in each case.

On to `Cn1ncc(Cl)c1-c1cc(C(=O)N[C@H](CN)Cc2cccc(F)c2)sc1Cl` [Afuresertib], for which the values for the drug sensitivity score in test [1] and in test [2] were 7.9 and 8.4, respectively.

Take `CNc1nc(-c2ccc3c(N)n[nH]c3c2)cc(N2C[C@@H](C(=O)NC3CCCCC3)CC[C@H]2C)n1`: the drug sensitivity score stood at 4.8 in test [1] and 3.9 in test [2].

In the case of `COCCNCc1ccc(-c2cc3nccc(Oc4ccc(NC(=O)C5(C(=O)Nc6ccc(F)cc6)CC5)cc4F)c3s2)nc1` [Sitravatinib], the drug sensitivity score in test [1] was found to be 0.6; in test [2], 0.

For `Nc1nc(OCc2cc(Br)cs2)c2[nH]cnc2n1` [Lomeguatrib], the drug sensitivity score in test [1] and in test [2] was 0 each time.

For `C[C@@H](Oc1cc(-n2cnc3ccc(CN4CCN(C)CC4)cc32)sc1C(N)=O)c1ccccc1C(F)(F)F`, the drug sensitivity score in test [1] was 11.5; in test [2], 6.3.

For the compound `O=C(c1ccc(OCCN2CCCCC2)cc1)c1c(-c2ccc(O)cc2)sc2cc(O)ccc12` [Raloxifene], the drug sensitivity score in test [1] was found to be 2.4; in test [2], 2.5.

On to `CC(=O)c1cnc2ccc(-c3cc(Cl)c(O)c(Cl)c3)nc2c1N[C@H]1CC[C@H](CN(C)C)CC1` [OTS167], for which the figures for the drug sensitivity score in test [1] and in test [2] were 17.4 and 15.9, respectively.

With `N#Cc1ccc(C(c2ccc(C#N)cc2)n2cncn2)cc1` [Letrozole], the drug sensitivity score in test [1] and in test [2] was 0 throughout.

As to `Cn1ncc(Cl)c1-c1cc(C(=O)N[C@H](CN)Cc2ccc(F)c(F)c2)oc1Cl` [Uprosertib], the drug sensitivity score in test [1] was 7.6; in test [2] it was 11.2.

As to `Nc1nc(NC2CC2)cc(-c2cccc(Cl)c2Cl)n1` [TH588], the drug sensitivity score in test [1] was determined as 2.4; in test [2], 1.7.

Turning to `COC(=O)N[C@@H](C)CNc1nccc(-c2cn(C(C)C)nc2-c2cc(Cl)cc(NS(C)(=O)=O)c2F)n1` [Encorafenib], the drug sensitivity score is 0.2 in test [1] and 0 in test [2].

Take `CCCC(CCC)C(=O)O` [Valproic acid]: the drug sensitivity score in test [1] is 1.6; in test [2], 0.9.

For `CC[C@H](C)C(=O)O[C@H]1C[C@H](O)C=C2C=C[C@H](C)[C@H](CC[C@@H](O)C[C@@H](O)CC(=O)O)[C@H]21` [Pravastatin], the figures for the drug sensitivity score in test [1] and in test [2] were 0 and 0.3, respectively.

For the compound `CC[C@@H]1C(=O)OC[C@@H]1Cc1cncn1C` [Pilocarpine], the drug sensitivity score in test [1] stood at 1.2; in test [2], 0.2.

Regarding `Clc1ccc(Nc2nnc(Cc3ccncc3)c3ccccc23)cc1` [Vatalanib], the drug sensitivity score was found to be 0.8 in test [1] and 0.3 in test [2].

With `CCN(CC)CCNC(=O)c1c(C)[nH]c(/C=C2\C(=O)Nc3ccc(-c4csc(-c5ccccc5)n4)cc32)c1C` [Amcasertib], the results for the drug sensitivity score in test [1] and in test [2] were 2.5 and 1, respectively.

`CCOc1cc2ncc(C#N)c(Nc3ccc(OCc4ccccn4)c(Cl)c3)c2cc1NC(=O)/C=C/CN(C)C` [Neratinib]: the drug sensitivity score in test [1] is 15.4; in test [2] it was 17.9.
